Numbers after ± are expanded uncertainties.
What was measured:
[1] = 323.15 K; for mass density / viscosity: 101.33 kPa, Liquid; for viscosity: Capillary tube (Ostwald / Ubbelohde) method
[2] = xn = mol fraction of the nth substance listed; conditions: 323.15 K; for viscosity / mass density: 101 kPa; for viscosity: Capillary tube (Ostwald / Ubbelohde) method

O [water]
Conditions | surface tension liquid-gas [mN/m]
[1], ring detachment method | 68.38 ± 0.04

CCCCOC(C)=O [butyl ethanoate]
Conditions | surface tension liquid-gas [mN/m]
[1], Ring tensiometer | 22.12 ± 0.06

[1]
Conditions | mass density [kg/m3] | viscosity [mPa·s]
– | 849.75 ± 0.4 | 0.502 ± 0.004

CCCO [propan-1-ol]
Conditions | surface tension liquid-gas [mN/m]
[1], Ring tensiometer | 21.36 ± 0.06

[1]
Conditions | mass density [kg/m3] | viscosity [mPa·s]
– | 779.3 ± 0.51 | 1.115 ± 0.007

CCCO [propan-1-ol] + O
[2], Liquid
Conditions | mass density [kg/m3] | viscosity [mPa·s]
x2 = 0.05 | 782.94 ± 0.49 | 1.121 ± 0.007
x2 = 0.1 | 786.61 ± 0.49 | 1.127 ± 0.007
x2 = 0.2 | 794.62 ± 0.47 | 1.15 ± 0.007
x2 = 0.3 | 803.64 ± 0.45 | 1.18 ± 0.008
x2 = 0.4 | 814.4 ± 0.43 | 1.219 ± 0.008
x2 = 0.5 | 827.68 ± 0.41 | 1.26 ± 0.008
x2 = 0.6 | 844.41 ± 0.38 | 1.291 ± 0.008
x2 = 0.7 | 865.87 ± 0.35 | 1.305 ± 0.008
x2 = 0.8 | 894.61 ± 0.31 | 1.256 ± 0.008
x2 = 0.9 | 935.04 ± 0.25 | 1.036 ± 0.006
x2 = 0.95 | 959.71 ± 0.22 | 0.827 ± 0.005

[2], Liquid, Ring tensiometer
Conditions | surface tension liquid-gas [mN/m]
x2 = 0.05 | 21.55 ± 0.33
x2 = 0.1 | 21.68 ± 0.33
x2 = 0.2 | 21.93 ± 0.34
x2 = 0.3 | 22.29 ± 0.34
x2 = 0.4 | 22.68 ± 0.34
x2 = 0.5 | 23.06 ± 0.35
x2 = 0.6 | 23.42 ± 0.35
x2 = 0.7 | 23.65 ± 0.35
x2 = 0.8 | 24.12 ± 0.36
x2 = 0.9 | 25.27 ± 0.37
x2 = 0.92 | 26.37 ± 0.39
x2 = 0.95 | 29.58 ± 0.43
x2 = 0.98 | 44.44 ± 0.6

CCCCOC(C)=O [butyl ethanoate] + CCCO
[2], Liquid
Conditions | mass density [kg/m3] | viscosity [mPa·s]
x1 = 0.1 | 790.07 ± 0.48 | 0.879 ± 0.006
x1 = 0.2 | 799.51 ± 0.47 | 0.747 ± 0.005
x1 = 0.3 | 807.87 ± 0.46 | 0.662 ± 0.005
x1 = 0.4 | 815.42 ± 0.45 | 0.604 ± 0.004
x1 = 0.5 | 822.21 ± 0.44 | 0.566 ± 0.004
x1 = 0.6 | 828.46 ± 0.43 | 0.538 ± 0.004
x1 = 0.7 | 834.3 ± 0.42 | 0.521 ± 0.004
x1 = 0.8 | 839.71 ± 0.41 | 0.508 ± 0.004
x1 = 0.9 | 844.84 ± 0.4 | 0.502 ± 0.004

[2], Liquid, Ring tensiometer
Conditions | surface tension liquid-gas [mN/m]
x1 = 0.1 | 21.56 ± 0.33
x1 = 0.2 | 21.72 ± 0.33
x1 = 0.3 | 21.84 ± 0.34
x1 = 0.4 | 21.97 ± 0.34
x1 = 0.5 | 22.05 ± 0.34
x1 = 0.6 | 22.12 ± 0.34
x1 = 0.7 | 22.17 ± 0.34
x1 = 0.8 | 22.2 ± 0.34
x1 = 0.9 | 22.18 ± 0.34

CCCCOC(C)=O [butyl ethanoate] + O
[2]
Conditions | interfacial tension [mN/m] | mass density [kg/m3] | surface tension liquid-gas [mN/m] | viscosity [mPa·s]
Liquid mixture 1, Ring tensiometer, x2 = 0.9998 | 14.2 ± 0.3 | – | – | –
Liquid mixture 2, Ring tensiometer, x2 = 0.1305 | – | – | 21.74 ± 0.43 | –
Liquid, x2 = 0.02 | – | 850.18 ± 0.4 | – | 0.503 ± 0.004
Liquid, x2 = 0.04 | – | 850.62 ± 0.39 | – | 0.504 ± 0.004
Liquid, x2 = 0.06 | – | 851.07 ± 0.39 | – | 0.506 ± 0.004
Liquid, x2 = 0.08 | – | 851.57 ± 0.39 | – | 0.507 ± 0.004

[2], Liquid, Ring tensiometer
Conditions | surface tension liquid-gas [mN/m]
x2 = 0.02 | 22.14 ± 0.34
x2 = 0.04 | 22.17 ± 0.34
x2 = 0.06 | 22.2 ± 0.34
x2 = 0.08 | 22.25 ± 0.34

From the NIST ThermoML archive (doi:10.1021/je900337a)
